Measured values taken from PMC8550792, “Evolution of kinase polypharmacology across HSP90 drug discovery” (Cell Chemical Biology, 2021).

Experiments:
Experiment in all cases: biochemical
Type in all cases: biochemical
382 unique human kinases [1] = target: T1, 382 unique human kinases (Homo sapiens, UniProt O94804); conditions: LOK/STK10, 10 uM; for remaining activity at 10 µM: read-out: % Enzyme Activity (relative to DMSO controls)
T1 construct: purchased Reaction Biology (HotSpot contract assay)

382 unique human kinases [2] = target: T2, 382 unique human kinases (Homo sapiens, UniProt P51812); conditions: RSK2, 10 uM; for remaining activity at 10 µM: read-out: % Enzyme Activity (relative to DMSO controls)
T2 construct: purchased Reaction Biology (HotSpot contract assay)

382 unique human kinases [3] = target: T3, 382 unique human kinases (Homo sapiens, UniProt P30530); conditions: kinase AXL, compound 10 uM; for remaining activity at 10 µM: read-out: % Enzyme Activity (relative to DMSO controls)
T3 construct: purchased Reaction Biology (HotSpot contract assay)
T3 sequence (P30530 26-894): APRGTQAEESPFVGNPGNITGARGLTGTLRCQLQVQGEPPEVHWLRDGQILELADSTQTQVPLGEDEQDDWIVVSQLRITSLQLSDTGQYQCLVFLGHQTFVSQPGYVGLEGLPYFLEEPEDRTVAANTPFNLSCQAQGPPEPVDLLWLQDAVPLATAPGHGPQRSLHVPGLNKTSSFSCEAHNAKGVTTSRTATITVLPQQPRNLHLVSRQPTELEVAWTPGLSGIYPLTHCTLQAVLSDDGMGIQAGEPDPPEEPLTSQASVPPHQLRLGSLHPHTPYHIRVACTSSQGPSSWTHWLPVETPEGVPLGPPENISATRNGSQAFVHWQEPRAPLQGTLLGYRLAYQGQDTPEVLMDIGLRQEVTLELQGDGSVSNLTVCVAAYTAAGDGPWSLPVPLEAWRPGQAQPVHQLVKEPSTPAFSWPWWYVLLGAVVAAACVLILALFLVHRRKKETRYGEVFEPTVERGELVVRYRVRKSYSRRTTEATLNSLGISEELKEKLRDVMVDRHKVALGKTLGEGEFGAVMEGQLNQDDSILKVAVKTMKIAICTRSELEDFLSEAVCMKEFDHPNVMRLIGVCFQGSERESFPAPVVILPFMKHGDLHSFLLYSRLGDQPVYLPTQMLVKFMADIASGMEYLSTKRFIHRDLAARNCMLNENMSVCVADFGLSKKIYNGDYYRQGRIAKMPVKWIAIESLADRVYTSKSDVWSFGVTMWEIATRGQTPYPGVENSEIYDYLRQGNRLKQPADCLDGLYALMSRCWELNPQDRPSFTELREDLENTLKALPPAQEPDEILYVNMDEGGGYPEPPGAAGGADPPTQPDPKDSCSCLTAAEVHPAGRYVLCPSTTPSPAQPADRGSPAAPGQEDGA

382 unique human kinases [4] = target: T4, 382 unique human kinases (Homo sapiens, UniProt Q13555); conditions: CAMK2g, 10 uM; for remaining activity at 10 µM: read-out: % Enzyme Activity (relative to DMSO controls)
T4 construct: purchased Reaction Biology (HotSpot contract assay)

382 unique human kinases [5] = target: T5, 382 unique human kinases (Homo sapiens, UniProt O00141); conditions: SGK1, 10 uM; for remaining activity at 10 µM: read-out: % Enzyme Activity (relative to DMSO controls)
T5 construct: purchased Reaction Biology (HotSpot contract assay)
T5 sequence (O00141 1-431): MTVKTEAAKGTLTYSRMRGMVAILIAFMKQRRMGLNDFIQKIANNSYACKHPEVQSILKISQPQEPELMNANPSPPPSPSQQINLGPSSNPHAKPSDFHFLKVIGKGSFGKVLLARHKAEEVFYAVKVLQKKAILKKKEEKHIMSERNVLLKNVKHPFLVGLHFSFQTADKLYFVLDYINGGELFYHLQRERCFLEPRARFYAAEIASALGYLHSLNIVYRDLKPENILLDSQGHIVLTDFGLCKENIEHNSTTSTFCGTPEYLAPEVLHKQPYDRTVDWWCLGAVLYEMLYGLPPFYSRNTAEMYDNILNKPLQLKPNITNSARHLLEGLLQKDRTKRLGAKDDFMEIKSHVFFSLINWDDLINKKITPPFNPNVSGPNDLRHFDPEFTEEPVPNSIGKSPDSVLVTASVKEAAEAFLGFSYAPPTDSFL

382 unique human kinases [6] = target: T6, 382 unique human kinases (Homo sapiens, UniProt P54753); conditions: EPHB3, 10 uM; for remaining activity at 10 µM: read-out: % Enzyme Activity (relative to DMSO controls)
T6 construct: purchased Reaction Biology (HotSpot contract assay)
T6 sequence (P54753 34-998): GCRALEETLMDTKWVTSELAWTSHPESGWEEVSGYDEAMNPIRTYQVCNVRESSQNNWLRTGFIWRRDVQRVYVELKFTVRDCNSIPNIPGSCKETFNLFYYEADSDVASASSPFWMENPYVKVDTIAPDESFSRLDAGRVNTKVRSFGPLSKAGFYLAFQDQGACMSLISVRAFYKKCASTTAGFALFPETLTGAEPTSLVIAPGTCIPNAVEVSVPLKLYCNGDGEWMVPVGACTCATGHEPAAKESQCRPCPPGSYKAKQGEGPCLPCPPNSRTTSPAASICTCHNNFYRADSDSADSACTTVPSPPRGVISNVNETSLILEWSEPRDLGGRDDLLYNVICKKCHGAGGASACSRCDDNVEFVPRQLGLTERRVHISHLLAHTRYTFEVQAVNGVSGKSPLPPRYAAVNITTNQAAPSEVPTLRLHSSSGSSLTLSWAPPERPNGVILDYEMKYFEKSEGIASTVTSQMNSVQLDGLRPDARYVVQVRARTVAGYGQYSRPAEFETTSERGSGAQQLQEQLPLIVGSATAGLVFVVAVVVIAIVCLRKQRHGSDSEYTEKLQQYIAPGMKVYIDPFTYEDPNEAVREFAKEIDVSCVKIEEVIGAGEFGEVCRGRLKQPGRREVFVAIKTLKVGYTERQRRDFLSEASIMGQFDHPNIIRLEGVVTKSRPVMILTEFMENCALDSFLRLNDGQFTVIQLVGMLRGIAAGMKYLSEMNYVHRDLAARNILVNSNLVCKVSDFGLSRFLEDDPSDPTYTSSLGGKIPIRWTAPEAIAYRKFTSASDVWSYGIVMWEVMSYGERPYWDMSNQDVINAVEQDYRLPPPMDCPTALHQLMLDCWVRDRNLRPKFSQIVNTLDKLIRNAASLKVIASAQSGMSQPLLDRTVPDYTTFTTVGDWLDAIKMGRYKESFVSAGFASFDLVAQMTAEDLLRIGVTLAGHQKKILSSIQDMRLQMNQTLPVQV

T2 sequence (P51812 whole entry): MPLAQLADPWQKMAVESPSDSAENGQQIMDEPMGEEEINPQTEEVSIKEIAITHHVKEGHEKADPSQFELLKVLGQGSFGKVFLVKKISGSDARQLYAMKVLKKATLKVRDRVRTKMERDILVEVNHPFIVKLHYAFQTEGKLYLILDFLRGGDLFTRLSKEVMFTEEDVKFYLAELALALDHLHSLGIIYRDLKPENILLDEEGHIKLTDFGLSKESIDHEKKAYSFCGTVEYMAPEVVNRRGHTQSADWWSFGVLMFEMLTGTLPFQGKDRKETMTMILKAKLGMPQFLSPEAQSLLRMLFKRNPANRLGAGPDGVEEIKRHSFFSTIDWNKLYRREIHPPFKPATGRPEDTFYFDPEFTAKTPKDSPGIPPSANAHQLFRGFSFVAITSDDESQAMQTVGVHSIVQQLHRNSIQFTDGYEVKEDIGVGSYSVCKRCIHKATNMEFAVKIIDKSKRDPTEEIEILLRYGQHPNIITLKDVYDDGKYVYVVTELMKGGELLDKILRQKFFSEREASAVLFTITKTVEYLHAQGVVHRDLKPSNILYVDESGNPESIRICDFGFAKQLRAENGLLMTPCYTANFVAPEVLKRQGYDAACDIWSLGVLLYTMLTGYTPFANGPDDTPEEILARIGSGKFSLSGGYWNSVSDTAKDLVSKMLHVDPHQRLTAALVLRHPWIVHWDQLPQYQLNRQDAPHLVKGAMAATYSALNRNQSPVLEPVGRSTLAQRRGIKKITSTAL
T4 sequence (Q13555 whole entry): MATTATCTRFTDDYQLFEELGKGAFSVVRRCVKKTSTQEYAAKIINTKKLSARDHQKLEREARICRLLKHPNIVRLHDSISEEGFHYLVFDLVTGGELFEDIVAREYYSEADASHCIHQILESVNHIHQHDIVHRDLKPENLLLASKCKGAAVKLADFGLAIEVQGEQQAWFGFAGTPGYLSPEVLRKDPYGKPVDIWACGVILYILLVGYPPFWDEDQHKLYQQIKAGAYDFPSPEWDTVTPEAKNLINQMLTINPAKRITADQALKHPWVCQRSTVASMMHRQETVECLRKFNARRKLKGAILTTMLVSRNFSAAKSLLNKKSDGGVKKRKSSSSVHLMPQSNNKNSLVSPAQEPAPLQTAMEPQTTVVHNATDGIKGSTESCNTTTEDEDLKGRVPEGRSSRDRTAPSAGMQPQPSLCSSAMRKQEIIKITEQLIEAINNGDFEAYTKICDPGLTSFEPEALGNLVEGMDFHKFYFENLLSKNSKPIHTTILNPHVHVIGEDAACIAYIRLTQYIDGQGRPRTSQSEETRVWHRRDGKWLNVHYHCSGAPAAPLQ
T1 sequence (O94804 whole entry): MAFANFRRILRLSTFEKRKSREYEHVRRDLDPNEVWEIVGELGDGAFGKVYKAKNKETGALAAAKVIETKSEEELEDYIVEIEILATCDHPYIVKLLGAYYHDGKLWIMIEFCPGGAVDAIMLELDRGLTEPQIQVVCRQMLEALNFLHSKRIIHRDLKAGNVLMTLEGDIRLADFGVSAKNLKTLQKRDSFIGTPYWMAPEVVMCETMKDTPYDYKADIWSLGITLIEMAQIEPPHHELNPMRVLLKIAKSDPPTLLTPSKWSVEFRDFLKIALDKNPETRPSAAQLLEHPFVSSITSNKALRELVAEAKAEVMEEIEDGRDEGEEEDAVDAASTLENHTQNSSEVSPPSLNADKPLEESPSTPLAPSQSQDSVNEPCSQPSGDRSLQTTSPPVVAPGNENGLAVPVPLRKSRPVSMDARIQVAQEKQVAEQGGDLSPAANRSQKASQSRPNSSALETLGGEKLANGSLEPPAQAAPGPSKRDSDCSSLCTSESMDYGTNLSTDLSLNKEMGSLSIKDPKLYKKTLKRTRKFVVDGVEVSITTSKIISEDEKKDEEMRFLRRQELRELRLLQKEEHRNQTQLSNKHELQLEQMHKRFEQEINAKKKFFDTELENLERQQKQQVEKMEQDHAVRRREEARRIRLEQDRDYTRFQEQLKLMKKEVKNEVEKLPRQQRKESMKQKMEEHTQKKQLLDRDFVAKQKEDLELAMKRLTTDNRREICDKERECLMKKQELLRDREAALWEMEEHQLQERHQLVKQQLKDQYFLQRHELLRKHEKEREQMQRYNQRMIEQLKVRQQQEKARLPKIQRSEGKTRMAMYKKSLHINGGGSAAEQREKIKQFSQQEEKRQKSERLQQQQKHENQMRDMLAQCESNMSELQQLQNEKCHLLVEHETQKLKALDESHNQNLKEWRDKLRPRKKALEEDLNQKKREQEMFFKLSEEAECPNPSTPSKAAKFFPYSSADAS

SMILES: CC(C)c1cc(-c2n[nH]c(=O)n2-c2ccc3c(ccn3C)c2)c(O)cc1O [Ganetespib (STA9090)]
- remaining activity at 10 µM (382 unique human kinases [1]): 77%
- remaining activity at 10 µM (382 unique human kinases [2]): 78.8%
- remaining activity at 10 µM (382 unique human kinases [3]): 84%

SMILES: CC(C)c1cc(-c2n[nH]c(=O)n2-c2ccc3c(ccn3C)c2)c(O)cc1O [Ganetespib]
- remaining activity at 10 µM (382 unique human kinases [4]): 98.8%
- remaining activity at 10 µM (382 unique human kinases [5]): 99%
- remaining activity at 10 µM (382 unique human kinases [6]): 94.5%

SMILES: CCNC(=O)c1noc(-c2cc(C(C)C)c(O)cc2O)c1-c1ccc(CN2CCOCC2)cc1 [Luminespib (AUY-922)]
- % Enzyme Activity (relative to DMSO controls) (382 unique human kinases [1]): 85.80%
- remaining activity at 10 µM (382 unique human kinases [1]): 86.5%
- % Enzyme Activity (relative to DMSO controls) (382 unique human kinases [2]): 92.24%
- remaining activity at 10 µM (382 unique human kinases [2]): 93.5%
- % Enzyme Activity (relative to DMSO controls) (382 unique human kinases [3]): 97.82%
- remaining activity at 10 µM (382 unique human kinases [3]): 98.9%

SMILES: CCNC(=O)c1noc(-c2cc(C(C)C)c(O)cc2O)c1-c1ccc(CN2CCOCC2)cc1 [Luminespib]
- % Enzyme Activity (relative to DMSO controls) (382 unique human kinases [4]): 105.88%
- remaining activity at 10 µM (382 unique human kinases [4]): 106%
- % Enzyme Activity (relative to DMSO controls) (382 unique human kinases [5]): 99.71%
- remaining activity at 10 µM (382 unique human kinases [5]): 100%
- % Enzyme Activity (relative to DMSO controls) (382 unique human kinases [6]): 94.58%
- remaining activity at 10 µM (382 unique human kinases [6]): 95.5%
